Data reported in patent publication US10980231B2, “Insect repellent” (Kao Corporation, priority 2015, dated 2021).

Tested on: not given
Experiment: not given
Conditions: cited from earlier work

Compound | skin permeability
CCN(CC)C(=O)c1cccc(C)c1 [DEET, N,N-diethyl-3-methylbenzamide] | high skin permeability

Tested on: insects
Experiment: not given
Conditions: repellent use; cited from earlier work

Compound | duration
CCN(CC)C(=O)c1cccc(C)c1 [DEET, N,N-diethyl-3-methylbenzamide] | 2 to 3 h

Tested on: Asian tiger mosquito
Experiment: Evaluation of inhibition of seeking behavior of mosquito for human arm (landing count)
Format: in vivo
Parameters: tested at 0.1 vol %
Conditions: sample 0.1 vol % in ethanol on breathable sheet on arm; landings in 5 minutes vs ethanol only; female mosquitoes
Method: Mosquitoes were prepared for evaluation in the same manner as in Example 1. Approximately 150 to 200 female Asian tiger mosquitoes were transferred in a plastic cage (30×30×30 cm). […] The other three sides were covered with a net, preventing a smell from remaining in the box. A breathable sheet for disposable diapers (air permeance (JIS P8117): 2 sec/300 mL·32 sheets or higher, water vapor transmission rate (JIS Z0208): 1 g/100 cm^2·1 hr or higher) was cut into a size of 6 cm×6 cm, and the resultant was fixed with a tape to the inner side of a Qualatex glove (AS ONE 8-4053-02) cut in 5 cm×5 cm, and […] of an evaluation sample, the concentration of which had been adjusted to 0.1 vol % with ethanol, was uniformly applied onto the breathable sheet. After the application, the resultant was left to stand for approximately 5 minutes, and the attraction test was conducted. The arm was covered with the Qualatex glove provided with the breathable sheet, and inserted in the plastic cage. After the insertion, the number of mosquitoes which landed on the breathable sheet in 5 minutes was counted. In the case that a mosquito landed a plurality of times, all of the landings were counted. In view of the influence of a sample on the mosquitoes, the test was conducted just four times in one cage, and the cage was then replaced with another cage and other mosquitoes were used for the subsequent tests. The inhibitory rate relative to the number of landings with application of ethanol solvent only was calculated to determine the inhibitory effect. Inhibitory rate (%)=100×(1−[number of landings with application of sample]/[number of landings with application of ethanol]) (Equation 2)

Compound | Inhibitory rate (%)
CCCCCCCCCCO [1-Decanol, 1-decanol] | 97.5%
C=CC(O)CCCCC (centres unmarked) [1-Octen-3-ol, 1-octen-3-ol] | 70.5%
CC1=CC(C)C(CO)C(C)C1 (centres unmarked) [2,4,6-Trimethyl-3-cyclohexene-1-methanol, 2,4,6-trimethyl-3-cyclohexene-1-methanol] | 89%
CCCc1ccc(O)c(OC)c1 [2-Methoxy-4-propylphenol, 2-methoxy-4-propylphenol] | 100%
C=CCCCCCCCCO [9-Decen-1-ol, 9-decen-1-ol] | 93.5%
CCOC(=O)C(C)C1CCCCC1 (centres unmarked) [Ethyl 2-cyclohexylpropionate, ethyl 2-cyclohexylpropionate] | 58%
CCCCC(CC)C(=O)OCC (centres unmarked) [Ethyl 2-ethylhexanoate, ethyl 2-ethylhexanoate] | 66%
CCOC(=O)Cc1ccccc1 [Ethyl phenylacetate, ethyl phenylacetate] | 38.5%
CCC/C=C/COC(C)=O [trans-2-Hexenyl acetate, trans-2-hexenyl acetate] | 54%
